Experimental data from the METLIN SMRT retention time set (Domingo-Almenara et al. 2019).

Experiment: gradient 5% acetonitrile 3 min, to 50% in 2 min, to 85% in 15 min, held 3 min, 100 µL/min
Conditions: column: Zorbax Extend-C18 2.1 x 50 mm; eluents: water / acetonitrile, 0.1% formic acid
Procedure, shortened: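 Standards, all pure, were combined into mixtures of ~100 molecules and run at 100 μL/min on a Zorbax Extend-C18 column (2.1 × 50 mm, 1.8 μm) with water and acetonitrile, each containing 0.1% formic acid. A coupled quadrupole time-of-flight mass spectrometer operated in positive and negative ionization mode. Retention time values come from computationally picked adduct peaks, each inspected manually.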

SMILES	RP-LC retention time [s]
Cc1cccc2c(=O)n(C3CCN(C(=O)Nc4ccccc4)CC3)cnc12	751
CCCn1cc(S(=O)(=O)Nc2ccc(Cl)cc2)c2cccnc21	942
O=C(Nc1ccc(Cl)cc1)N1CCC(N2CCN(Cc3ccc(F)cc3)C(=O)C2=O)CC1	799
CN(C(=O)Cn1ccn2nc(-c3ccccc3)c(CO)c2c1=O)c1ccccc1	774
CCC(C)NC(=O)c1cc2c(s1)N(CC1CC1)CCCC2 (centres undefined)	1090
CN1CCCCCCN(C(=O)c2cc(CN3CCOCC3)on2)[C@H]2CCC[C@H]2C1=O	614
Cc1cccc(C)c1Nc1c(-c2ccc(O)cc2)nc2ncccn12	658
Cc1ccccc1Nc1c(-c2cccc(Br)c2)nc2cccc(C)n12	833
Cc1ccn2c(Nc3ccc4c(c3)OCO4)c(-c3ccc(O)cc3)nc2c1	629
Cc1ccn2c(Nc3ccc4c(c3)OCO4)c(-c3ccc(Cl)cc3)nc2c1	736
CCOc1cccc(-c2noc(Cn3ncn4nc(-c5cc(C)ccc5C)cc4c3=O)n2)c1	1280
CC1=C(c2ccccc2)S(=O)(=O)N=C1N1CCCN(C(=O)NC2CCCC2)CC1	778
Cc1cc(NC(=O)Cn2ccn3nc(-c4ccccc4)c(CO)c3c2=O)no1	714
O=S(=O)(c1ccc(F)c(Cl)c1)N1CCc2nc(-c3ccccc3)ncc2C1	1130
Cc1noc2ncn(CC(=O)Nc3ccc(F)cc3)c(=O)c12	735
O=C(NS(=O)(=O)c1ccc(F)cc1)c1ccccc1	744
Cc1noc(C2(NC(=O)c3ccc(C)s3)CCCCC2)n1	868
COc1ccc(Nc2c(-c3ccc(OC)cc3)nc3nc(C)cc(C)n23)cc1	711
CC1CN(C2CCCCC2)c2nc3c(c(=O)n(CCN4CCCCC4)c(=O)n3C)n2C1 (centres undefined)	722
COc1cccc(OC)c1C(=O)Nc1nnc(SCc2nnc(-c3ccccc3)o2)s1	832
CCCc1nc(-c2c(C)cc(C)nc2NC(=O)c2ccccc2Cl)no1	934
COC(=O)CC(NC(=O)N1CCCn2nc(-c3cccnc3)cc2C1)c1ccccc1 (centres undefined)	596
CC(C)n1cc(S(=O)(=O)Nc2cccc(Cl)c2)c2cccnc21	946
Cc1nc2c(sc3nc(-c4ccccc4)ccc32)c(=O)n1CC(=O)NCCc1ccc(Cl)cc1	1080
COc1ccc(S(=O)(=O)Nc2cc(-c3cn4cccc(C)c4n3)ccc2C)cc1OC	662

SMILES	RP-LC retention time [s]
Cc1nc(-c2cnccn2)n(CC(=O)Nc2cccc(Cl)c2)c(=O)c1C	792
CC1(C(=O)NCc2ccccc2)CCCN(C(=O)Nc2ccc(Cl)cc2)C1 (centres undefined)	962
Cc1noc(C)c1CNC(=O)c1cc(F)ccc1Cl	726
Cc1cc(C)c(NC(=O)Cn2cccc2-c2nc(-c3ccc4c(c3)OCO4)no2)c(C)c1	1120
COc1ccc(C)c2sc(NS(=O)(=O)c3ccc(C)cc3)nc12	870
O=C1CCC(C(=O)N2CCCn3ccnc3C2C2CCCC2)=NN1 (centres undefined)	564
CCc1nnc2ccc(-c3noc(-c4ccc(F)cc4F)n3)cn12	879
Cc1nnc(N2CCC(C(=O)N3CCOCC3)CC2)c2nn(-c3ccccc3)c(C)c12	620
CCc1ccc(CN2C(=O)C3(CCOCC3)CC2c2nnnn2C(C)(C)C)cc1 (centres undefined)	862
CCN1C(=O)c2cc(S(=O)(=O)Nc3cc(C)cc(C)c3)ccc2Oc2cccnc21	1080
Cc1cc2c(=O)n(CC(=O)Nc3ccc(C(F)(F)F)cc3)ccc2s1	706
O=C(Cc1cccc(F)c1)N1CCOc2ccccc2C1	844
CCOC(=O)c1ccc(Nc2c(-c3ccc(C)cc3)nc3cnccn23)cc1	918
O=C(CN1C(=O)CCS(=O)(=O)c2ccccc21)Nc1cccc(C(F)(F)F)c1	849
Cc1cc(C(=O)N2CCCCC2)c2c(=O)n(Cc3nc(-c4cccs4)oc3C)c(=O)n(C)c2n1	955
CCOc1ccc(-c2noc(Cn3nc(-c4ccccc4F)ccc3=O)n2)cc1	1050
O=C(Nc1ccccc1Cl)N1CCC(N2CCN(Cc3ccccc3)C(=O)C2=O)CC1	867
Cc1cc(CNC(=O)NC(C)(C)C)on1	636
O=C(CCNc1cnc2cnccn12)NCc1ccccc1C(F)(F)F	585
CC(CCc1ccccc1)NC(=O)Cc1nnc(-c2ccccn2)o1 (centres undefined)	744
O=C(CCc1csc2nc(-c3ccc(Cl)cc3)cn12)Nc1nccs1	774
COc1ncccc1CNC(=O)Cc1ccsc1	610
COc1ccc(NC(=O)c2ccc(-n3cnc(NC(=O)C4CC4)c3)cc2)cc1Cl	780
Cc1ccc2oc(C(=O)NCc3c(F)cccc3F)cc2n1	652

Now from value to molecule:

RP-LC retention time [s]	SMILES
620	CC(C)CC(=O)NCC1Cn2cccc2C(=O)N1C (centres undefined)
622	O=C(Nc1ccccc1)N1C[C@H]2C[C@H](C1)[C@H]1CCCC(=O)N1C2
908	CCOc1nc2ccccc2nc1N1CCCC(C(=O)Nc2ccc(NC(C)=O)cc2)C1 (centres undefined)
584	CC(C)COc1cc(=O)n2c(c1C(=O)NCCCN1CCCCC1)CCCCC2
738	CC1(C)CC(=O)c2cn(-c3ccccc3)c(=O)c(C(=O)NCC3CCCO3)c2C1 (centres undefined)
1010	CCCn1ccc2sc(C)c(C(=O)NCC3CCCCC3)c2c1=O
1090	CCc1nc(-c2csc(S(=O)(=O)N3CCCC(C(=O)Nc4cc(C)cc(C)c4)C3)c2)no1 (centres undefined)
774	O=C1NC2(CCN(C(=O)c3cc(F)cc(F)c3)CC2)Nc2cc(Cl)ccc21
722	O=C(NCC1CCN(C(=O)COc2ccccc2)CC1)c1ccc(Br)o1
978	COc1cccc(-n2c(=O)c3sccc3n(Cc3nc(-c4cccc(C)c4)no3)c2=O)c1
840	Cc1ccc(F)cc1NS(=O)(=O)c1cc2n(c1)CCN(CC(C)C)C2=O
718	COCCCNC(=O)C1CCN(Cc2cc3ccccc3n2Cc2ccccc2C)CC1
862	COc1ccc(NC(=O)c2cnc3c(c2)c(=O)n(C)c(=O)n3-c2ccccc2)cc1
620	Cn1nnnc1SCC(=O)NCCCC(=O)Nc1cccc2cccnc12
1050	COc1ccc(-c2nnc(-c3cccc(S(=O)(=O)N4CCC(C)CC4)c3)o2)cc1OC
865	CCCc1noc(-c2ccc(-n3ncc(C(=O)NC4CC4)c3C)nc2)n1
690	Cc1ccc2nc3c(c(C(=O)NC4CCCC4)c2c1)CCC3
794	CCn1c(=O)c2c(cc(C)n2C)n(CC(=O)Nc2ccc(OC)c(Cl)c2)c1=O
705	Cc1ccc(CNC(=O)C2CCCN(c3nnc4ccccn34)C2)cc1 (centres undefined)
652	Cc1nc2n(c(=O)c1C)CCN2CC(=O)NCc1ccccc1Cl

RP-LC retention time [s]	SMILES
585	COc1ccc2[nH]c(=O)c(CCC(=O)NCCCN3CCCC(C)C3)cc2c1 (centres undefined)
1060	COc1cc(OC)cc(-c2noc(CCn3nc(-c4ccc(Cl)cc4)ccc3=O)n2)c1
1110	Cc1ccc(-n2nc(N3CCCC(C(=O)NC4CCCCCCC4)C3)ccc2=O)cc1Cl (centres undefined)
896	CSc1ccc(-c2nc3cc(C)ccn3c2NC2CCCCC2)cc1
782	CCN(C(=O)C1CCCN1S(=O)(=O)c1cc2c(cc1C)NC(=O)CO2)c1ccc(OC)cc1 (centres undefined)
716	CCN1CCN(C(=O)Cn2c(=O)c3cnc(-c4ccc(Cl)cc4)nc3n(CC)c2=O)CC1
673	CC1CCCN(CC2CCN(S(=O)(=O)c3ccc(F)cc3Cl)CC2)C1 (centres undefined)
886	Cc1cccc(CN2C(=O)CN(S(C)(=O)=O)CC2(C)C(=O)NCc2ccc(Cl)cc2)c1 (centres undefined)
701	O=C(NCc1csc(C2CCN(C(=O)COc3ccccc3)CC2)n1)C1CC1
736	Cc1noc(C)c1C1CCCN1C(=O)Cc1ccccc1F (centres undefined)
1010	CCOc1ccc(CCNC(=O)C2CCCN(S(=O)(=O)N3CCC(C)CC3)C2)cc1 (centres undefined)
685	CN1C(=O)c2cccn2CC1CNC(=O)c1[nH]nc2c1COc1ccccc1-2 (centres undefined)
690	CCNC(=O)NC1CCN(c2ccc(C)c(C)c2)C1=O (centres undefined)
884	COc1ccc2oc(-c3csc(NC(=O)c4ccc(N5C(=O)CCC5=O)cc4)n3)cc2c1
1110	CCc1nc(-c2csc(S(=O)(=O)N3CCCC(C(=O)Nc4ccc(C)c(F)c4)C3)c2)no1 (centres undefined)
902	CCN1c2ccc(C)cc2C(=O)NC12CCN(C(=O)c1ccc(C)cc1C)CC2
794	COc1ccc(NC(=O)Cn2nc(N3CCOCC3)c3ccccc3c2=O)cc1Cl
831	O=C(Nc1ccc(OC(F)(F)F)cc1)C1CCN(S(=O)(=O)c2ccc3[nH]c(=O)ccc3c2)CC1
583	Cc1cc(CN2CCC(CNC(=O)Cc3ccccc3Cl)CC2)c(C)o1
660	Cc1ccc(CNC(=O)CCC2CCN(c3cc(NC4CC4)ncn3)CC2)o1
